From ChEMBL document CHEMBL1201862, “PubChem BioAssay data set” (2004)
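Method: 48-hour compound exposure of cells in 96-well plates, five concentrations, linear interpolation of endpoints. Abbreviation: GI50, concentration required for 50% inhibition of growth.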 Activity calls are given as the source filed them. No stated cut-off is given here; in the data, active = GI50 up to about 1.1 µM and inactive = higher.

Tests used:
Experiment in all cases: NCI anticancer screen, dose series, 48 h
SK-MEL-28 = test system: SK-MEL-28
MCF7 = test system: MCF7
CCRF-CEM = test system: CCRF-CEM
T47D = test system: T47D
BT-549 = test system: BT-549
HCT-15 = test system: HCT-15
Malme-3M = test system: Malme-3M
A549 = test system: A549
U-251 = test system: U-251
HOP-92 = test system: HOP-92
NCI/ADR-RES = test system: NCI/ADR-RES
SK-MEL-2 = test system: SK-MEL-2
M14 = test system: M14
SW-620 = test system: SW-620
MDA-MB-435 = test system: MDA-MB-435
HT-29 = test system: HT-29
OVCAR-8 = test system: OVCAR-8
NCI-H522 = test system: NCI-H522
IGROV-1 = test system: IGROV-1
RPMI-8226 = test system: RPMI-8226

Row | SMILES | GI50 (SK-MEL-28) | GI50 (MCF7) | GI50 (CCRF-CEM) | GI50 (T47D) | GI50 (BT-549) | GI50 (HCT-15) [µM] | GI50 (Malme-3M) | GI50 (A549) | GI50 (U-251) | GI50 (HOP-92) | GI50 (NCI/ADR-RES) | GI50 (SK-MEL-2) | GI50 (M14) | GI50 (SW-620) | GI50 (MDA-MB-435) | GI50 (HT-29) | GI50 (OVCAR-8) | GI50 (NCI-H522) | GI50 (IGROV-1) | GI50 (RPMI-8226)
1 | O=C(c1cc(Cl)cc(Cl)c1)N(C(=S)OC12CC3CC(CC(C3)C1)C2)c1ccccc1 | 59.4 µM (inactive) | 30.1 µM (inactive) | 5.24 µM (inactive) | 61.2 µM (inactive) | 50.2 µM (inactive) | 34.6 | 49.7 µM (inactive) | 42.7 µM (inactive) | 33 µM (inactive) | 29 µM (inactive) | 37.3 µM (inactive) | 19.4 µM (inactive) | 22.7 µM (inactive) | 39.5 µM (inactive) | 42.2 µM (inactive) | 39.4 µM (inactive) | 41.7 µM (inactive) | 16 µM (inactive) |  | 
2 | O=c1cc(NNCc2ccccc2)[nH]c(=O)[nH]1 | > 100 µM (inactive) | > 100 µM (inactive) | > 100 µM (inactive) | 0.678 µM (active) | > 100 µM (inactive) | > 100 | 80.5 µM (inactive) | > 100 µM (inactive) | > 100 µM (inactive) | 4.68 µM (inactive) | > 100 µM (inactive) |  | > 100 µM (inactive) | > 100 µM (inactive) | > 100 µM (inactive) | > 100 µM (inactive) | > 100 µM (inactive) |  | > 100 µM (inactive) | > 100 µM (inactive)
3 | Cc1c(O)c(=O)ccn1CCc1ccc(O)cc1 | 38.4 µM (inactive) | 23.9 µM (inactive) | 10 µM (inactive) | 45.6 µM (inactive) | > 100 µM (inactive) | 4.82 | 22.5 µM (inactive) | 32.9 µM (inactive) | 13.9 µM (inactive) | 24.3 µM (inactive) | 8.71 µM (inactive) |  | 17.3 µM (inactive) | 44.8 µM (inactive) | 42.2 µM (inactive) | 20.4 µM (inactive) | 31.3 µM (inactive) |  |  | 14.7 µM (inactive)
4 | O=C(O)c1nc2ccc(C(F)(F)F)cc2nc1NCc1ccc(Cl)c(Cl)c1 | 17.6 µM (inactive) | 17.8 µM (inactive) | 23.4 µM (inactive) | 16.6 µM (inactive) | 17.5 µM (inactive) | 18 |  | 16.1 µM (inactive) | 13.8 µM (inactive) | 15.7 µM (inactive) | 22.2 µM (inactive) | 12.5 µM (inactive) | 17.8 µM (inactive) | 19.4 µM (inactive) | 15.6 µM (inactive) | 15.2 µM (inactive) | 16.3 µM (inactive) |  | 13.9 µM (inactive) | 27.7 µM (inactive)
5 | [N-]=[N+]=Nc1cccc(-c2nnc(Cl)cc2O)c1 | > 100 µM (inactive) | > 100 µM (inactive) | > 100 µM (inactive) | > 100 µM (inactive) | > 100 µM (inactive) | > 100 | > 100 µM (inactive) | > 100 µM (inactive) | > 100 µM (inactive) | > 100 µM (inactive) | > 100 µM (inactive) |  | > 100 µM (inactive) | > 100 µM (inactive) | > 100 µM (inactive) | > 100 µM (inactive) | > 100 µM (inactive) | > 100 µM (inactive) | > 100 µM (inactive) | > 100 µM (inactive)
6 | COc1cc2oc(-c3ccc(O)cc3)cc(=O)c2c(OC)c1OC | > 100 µM (inactive) | > 100 µM (inactive) | > 100 µM (inactive) | 63.5 µM (inactive) | > 100 µM (inactive) | > 100 | > 100 µM (inactive) | > 100 µM (inactive) | > 100 µM (inactive) | > 100 µM (inactive) | > 100 µM (inactive) |  | > 100 µM (inactive) | > 100 µM (inactive) | > 100 µM (inactive) | > 100 µM (inactive) | > 100 µM (inactive) | > 100 µM (inactive) | > 100 µM (inactive) | > 100 µM (inactive)
7 | COC(OC)C(O)C1OC=CC1n1cnc2c(N)ncnc21 (configuration not stated) | > 100 µM (inactive) | > 100 µM (inactive) | > 100 µM (inactive) | > 100 µM (inactive) | > 100 µM (inactive) | > 100 |  |  | > 100 µM (inactive) | > 100 µM (inactive) | > 100 µM (inactive) | > 100 µM (inactive) |  | > 100 µM (inactive) | > 100 µM (inactive) | > 100 µM (inactive) |  |  | > 100 µM (inactive) | > 100 µM (inactive)
8 | O=Cc1ccc(OCc2cccc(COc3ccc(/C=N\Nc4ccc([N+](=O)[O-])cc4[N+](=O)[O-])cc3)n2)cc1 | > 100 µM (inactive) | > 100 µM (inactive) | 55.1 µM (inactive) | > 100 µM (inactive) | > 100 µM (inactive) | > 100 | > 100 µM (inactive) | > 100 µM (inactive) | 63.5 µM (inactive) |  | > 100 µM (inactive) | 89.5 µM (inactive) | > 100 µM (inactive) | > 100 µM (inactive) | > 100 µM (inactive) | > 100 µM (inactive) | 61 µM (inactive) | > 100 µM (inactive) | > 100 µM (inactive) | > 100 µM (inactive)
9 | CNC(=O)CCC(NC(C)=O)C(=O)NC(Cc1ccc(NC(=O)CCCCC(C)=O)cc1)C(=O)NC(CCC(=O)NC)C(=O)NC (configuration not stated) | > 100 µM (inactive) | > 100 µM (inactive) |  | > 100 µM (inactive) | > 100 µM (inactive) | > 100 | > 100 µM (inactive) | > 100 µM (inactive) | > 100 µM (inactive) | > 100 µM (inactive) | > 100 µM (inactive) |  | > 100 µM (inactive) | > 100 µM (inactive) | > 100 µM (inactive) | > 100 µM (inactive) | > 100 µM (inactive) | > 100 µM (inactive) | > 100 µM (inactive) | > 100 µM (inactive)
10 | C#CCCOC(=O)c1ccccc1OC(C)=O |  | > 100 µM (inactive) | > 100 µM (inactive) | > 100 µM (inactive) | > 100 µM (inactive) | > 100 |  |  | > 100 µM (inactive) | > 100 µM (inactive) | > 100 µM (inactive) | > 100 µM (inactive) | > 100 µM (inactive) | > 100 µM (inactive) | > 100 µM (inactive) |  | > 100 µM (inactive) | 63.7 µM (inactive) | > 100 µM (inactive) | > 100 µM (inactive)
11 | Cc1cccc2[nH]c3c(c(O)cc4[nH]c5cccc(C)c5c(=O)c43)c(=O)c12 | > 10 µM (inactive) | > 10 µM (inactive) | > 10 µM (inactive) | 8.83 µM (inactive) | 3.63 µM (inactive) | > 10 | 6.95 µM (inactive) | > 10 µM (inactive) | 3.3 µM (inactive) |  | > 10 µM (inactive) | > 10 µM (inactive) | 4.47 µM (inactive) | 6.11 µM (inactive) | 4.89 µM (inactive) | 3.85 µM (inactive) | 6.11 µM (inactive) | > 10 µM (inactive) | 5.74 µM (inactive) | > 10 µM (inactive)
12 | CCn1c2ccccc2c2ccc(C3C4C(=O)N(c5cccc6ccccc56)C(=O)C4ON3C(C(N)=O)c3ccccc3)cc21 (configuration not stated) | > 25 µM (inactive) | 8.38 µM (inactive) |  | 17.9 µM (inactive) | 14.9 µM (inactive) | 13.3 | > 25 µM (inactive) | > 25 µM (inactive) | 10.8 µM (inactive) | > 25 µM (inactive) | > 25 µM (inactive) | 12.4 µM (inactive) | 19.1 µM (inactive) | 12.8 µM (inactive) | 10.2 µM (inactive) | 8.24 µM (inactive) | > 25 µM (inactive) | > 25 µM (inactive) | 13.4 µM (inactive) | 
13 | CC[C@]12C=CCN3CC[C@@]4(c5cc(Br)c(OC)cc5N(C)[C@H]4[C@@](O)(C(=O)N[C@@H](Cc4ccc(O)cc4)C(=O)OC)[C@@H]1O)[C@@H]32 | > 100 µM (inactive) | 23.1 µM (inactive) | 21.6 µM (inactive) | 57.7 µM (inactive) | 20.7 µM (inactive) | 23.3 | 14.1 µM (inactive) | 25.7 µM (inactive) | 14.6 µM (inactive) |  | 20.7 µM (inactive) | 20.1 µM (inactive) | 28 µM (inactive) | 32.9 µM (inactive) | 16.4 µM (inactive) | 14.6 µM (inactive) | 24.9 µM (inactive) | 17.7 µM (inactive) | 19.5 µM (inactive) | 15.6 µM (inactive)
14 | O=C(CCCn1ccnc1[N+](=O)[O-])NCCn1ccnc1[N+](=O)[O-] | > 100 µM (inactive) | > 100 µM (inactive) | > 100 µM (inactive) | > 100 µM (inactive) | > 100 µM (inactive) | > 100 | > 100 µM (inactive) | > 100 µM (inactive) | > 100 µM (inactive) |  | > 100 µM (inactive) | > 100 µM (inactive) | > 100 µM (inactive) | > 100 µM (inactive) | > 100 µM (inactive) | > 100 µM (inactive) | > 100 µM (inactive) | > 100 µM (inactive) | > 100 µM (inactive) | > 100 µM (inactive)
15 | COc1ccc(CCn2ccc(=O)c(O)c2C)cc1OC |  | 20.5 µM (inactive) |  | 29.9 µM (inactive) | 52.4 µM (inactive) | 2.7 | 30.7 µM (inactive) | 21.4 µM (inactive) | 9.64 µM (inactive) | 20.4 µM (inactive) | 7.45 µM (inactive) |  | 12.2 µM (inactive) | 41.1 µM (inactive) | 41.6 µM (inactive) | 18.5 µM (inactive) | 16.9 µM (inactive) |  |  | 34 µM (inactive)
